Each structure is given as a SMILES string. In brackets after ≈: the same amount, converted by molar mass.

The subject of one test is NF-kappa B transcriptional activity. The test is described as follows: Evaluation of the NF-kappa B inhibition (β-gal reporter in immortalized HUVEC, IL-1 β induced). The test is classed as cell-based. As to conditions: Homo sapiens; HUVEC NF-kappaB β-gal reporter cells; IL-1 β induction; β-gal activity determined 16 hours after; read-out: NFkB inhibition activity IC50. As to the method: Evaluation of the NF-kappa B Inhibition
Cells used for the tests were those prepared by stably introducing E. coli β-galactosidase (β-gal) genes driven by SV 40 minimum promoter fused with 6 tandems of the NF-KappaB binding motif derived from immunoglobulin kappa light chain enhancer into human normal umbilical cord vein endothelial cells (HUVEC) immortalized with SV 40 large T antigen. The cells were subcultured in RPMI medium containing 10% of FBS, and were seeded on a 96-well plate in a concentration of 1×10^4/well on a day before the start of the experiments. A compound of the present invention was dissolved in DMSO to obtain a solution of a proper concentration, which was added into the 96-well plate so that the final DMSO concentration would be not higher than 1%. 30 minutes after the addition of the compound, in order to induce NF-kappa B transcriptional activity, […] of IL-1 β was added to each well so as to obtain the final concentration of […]. β-gal activity was determined 16 hours after with a chemiluminescent substrate (Galacton-Light-Plus: Boehringer Mannheim) according to a protocol attached to the reagent. A Luminescence detector (ATTO) was used for the determination.
Consider `CC1(C)CC1C(=O)Nc1ccc(Oc2ccc(NC(=O)C3CC3(C)C)nn2)cc1` (stereo not shown) [Example 8], for which the IC50 (in general, the concentration needed to halve the response being measured) is 1.5 µg/mL (≈ 3.8 µM). Still for that read-out and setting: the figure for `CC1(C)CC1C(=O)Nc1ccc(CSc2ccc(NC(=O)C3CC3(C)C)cn2)cc1` (stereo not shown) [Example 14] is 0.015 µg/mL (≈ 0.0354 µM); for `CC1(C)CC1C(=O)Nc1ccc(Oc2ccc(NC(=O)Cc3ccccc3)cc2)nc1` (stereo not shown) [Example 32] it is 0.1 µg/mL (≈ 0.241 µM). For the molecule `CC1(C)CC1C(=O)Nc1ccc(Oc2ccc(NCCc3ccccc3)cc2)nc1` (stereo not shown) [Example 38], the IC50 is 0.05 µg/mL (≈ 0.125 µM). The same measure, in the same setting: the figure for `CC1(C)CC1C(=O)Nc1ccc(Oc2ccc(NC(=O)CCCc3ccccc3)cc2)nc1` (stereo not shown) [Example 37] is 0.09 µg/mL (≈ 0.203 µM); for `CC1(C)C[C@@H]1C(=O)Nc1ccc(Oc2ccc(NC(=O)[C@H]3CC3(C)C)cn2)cc1` [Example 43] it is 0.25 µg/mL (≈ 0.635 µM). Still for that read-out and setting: the figure for `Cc1cc(Oc2ccc(NC(=O)C3CC3(C)C)cn2)ccc1NC(=O)C1CC1(C)C` (stereo not shown) [Example 22] is 0.15 µg/mL (≈ 0.368 µM).

On to `CC1(C)CC1C(=O)Nc1ccc(C(O)c2ccc(NC(=O)C3CC3(C)C)nc2)cc1` (stereo not shown) [Example 4], for which the IC50 was found to be 1 µg/mL (≈ 2.45 µM).

For `CC1(C)CC1C(=O)Nc1ccc(C(O)c2ccc(NC(=O)C3CC3(C)C)cn2)cc1` (stereo not shown) [Example 6], the IC50 amounted to 0.4 µg/mL (≈ 0.982 µM). The same measure, in the same setting: the same measure for `CC1(C)CC1C(=O)Nc1ccc(Nc2ncc(NC(=O)C3CC3(C)C)cn2)cc1` (stereo not shown) [Example 9]: 0.7 µg/mL (≈ 1.78 µM); for `O=C(Nc1ccc(Oc2ccc(NC(=O)C3CC3(Cl)Cl)cn2)cc1)C1CC1(Cl)Cl` (stereo not shown) [Example 26]: 0.15 µg/mL (≈ 0.316 µM). Same read-out and setting: the figure for `CC1(C)CC1C(=O)Nc1ccc(Cc2ccc(NC(=O)C3CC3(C)C)cn2)cc1` (stereo not shown) [Example 7] is 1.5 µg/mL (≈ 3.83 µM); for `CC1(C)CC1C(=O)Nc1ccc(Oc2ccc(NCCCc3ccccc3)cc2)nc1` (stereo not shown) [Example 39] it is 0.035 µg/mL (≈ 0.0842 µM). The same measure, in the same setting: the figure for `CC1(C)C[C@@H]1C(=O)Nc1ccc(Oc2ccc(NC(=O)[C@@H]3CC3(C)C)cc2)nc1` [Example 44] is 0.1 µg/mL (≈ 0.254 µM); for `CC1(C)CC1C(=O)Nc1ccc(Cc2ccc(NC(=O)C3CC3(C)C)nc2)cc1` (stereo not shown) [Example 5] it is 0.9 µg/mL (≈ 2.3 µM); for `COc1ccc(CC(=O)Nc2ccc(Oc3ccc(NC(=O)C4CC4(C)C)cn3)cc2)cc1` (stereo not shown) [Example 34] it is 0.3 µg/mL (≈ 0.673 µM).

On to `CC1(C)CC1C(=O)Nc1ccc(Oc2ccc(NC(=O)C3CC3(C)C)cn2)cc1` (stereo not shown) [Example 1], for which the IC50 was determined as 0.5 µg/mL (≈ 1.27 µM). Same read-out and setting: the figure for `CC1(C)CC1C(=O)Nc1ccc(Sc2ccc(NC(=O)C3CC3(C)C)cn2)cc1` (stereo not shown) [Example 2] is 0.3 µg/mL (≈ 0.733 µM); for `CC1(C)CC1C(=O)Nc1ccc(Oc2ccc(NC(=O)c3ccccc3)cc2)nc1` (stereo not shown) [Example 31] it is 1.5 µg/mL (≈ 3.74 µM). Consider `CC1CCCCC1C(=O)Nc1ccc(Oc2ccc(NC(=O)C3CCCCC3C)cn2)cc1` (stereo not shown) [Example 29], for which the IC50 came out at 1 µg/mL (≈ 2.22 µM). The same measure, in the same setting: the same measure for `CC1(C)C[C@@H]1C(=O)Nc1ccc(Oc2ccc(NC(=O)[C@@H]3CC3(C)C)cn2)cc1` [Example 45]: 1 µg/mL (≈ 2.54 µM); for `CC1(C)CC1C(=O)Nc1ccc(Nc2ccc(NC(=O)C3CC3(C)C)cn2)cc1` (stereo not shown) [Example 3]: 0.8 µg/mL (≈ 2.04 µM). On the same count and under the same terms, the figure for `CC1(C)CC1C(=O)Nc1ccc(Oc2ccc(NC(=O)Cc3ccc(Cl)cc3)cc2)nc1` (stereo not shown) [Example 33] is 0.2 µg/mL (≈ 0.445 µM).

The next test deals with anti-TTx antibody titer. The test is described as follows: Antibody titer inhibition test (TTx-sensitized monkeys, ELISA). The test is classed as in vivo. The conditions noted are these: Rhesus monkeys, 50 mg/kg orally twice daily for 4 weeks from TTx sensitization. As to the method:
(§1) An antibody titer inhibition test and a delayed-type hypersensitivity reaction inhibition test
(§2) Rhesus monkeys (female, aged four to six) subjected to the test were sensitized with 6Lf of TTx (Tetanus Toxoid) both in the back skin and in the femur muscle under anesthesia by an intramuscular injection of ketamine. The subject drug at the dose of 50 mg/kg had been administered twice daily (7:00 am and 7:00 pm) for 4 weeks starting at the day of TTx sensitization. The drug was suspended with 0.5% Tween 80 solution and was orally administered using a gastric catheter. The control animals were administered with the vehicle in the same manner as those for the test article. One ml of blood was drawn from femoral vein of each animal twice a week to obtain sera with which the anti-TTx antibody titer was evaluated by the ELISA method. The antibody titer was determined with OD of serially-diluted serum from 1:100 by 2 times and was defined as the degree of dilution reaching to “an average OD of the antibody before immunization+2×SD”. One hour after the final administration in the morning on day 28, TTx was challenged once in the thoracic skin (10, 3, 1, 0.3, 0.1, 0.03 Lf/ml, 10 μl/site), and skin reactions at the injection sites were observed 24 and 48 hours after the TTx challenge. The delayed-type hypersensitivity reaction was scored according to the Draize dermal test criteria.
(In general: ELISA stands for enzyme-linked immunosorbent assay.)
As to `CC1(C)C[C@@H]1C(=O)Nc1ccc(Oc2ccc(NC(=O)[C@H]3CC3(C)C)cn2)cc1` [Example 43], the “inhibiting effect on anti-TTx antibody titer” value is reported as “exhibited its inhibiting effect”.

The next test has as its system delayed-type hypersensitivity reaction. The experiment in a line: Delayed-type hypersensitivity reaction inhibition test (TTx challenge in thoracic skin). The test is classed as in vivo. As to conditions: Rhesus monkeys, 50 mg/kg orally twice daily for 4 weeks; TTx challenge day 28, skin reactions 24 and 48 hours after, Draize criteria. As to the method:
as §1, §2
As to `CC1(C)C[C@@H]1C(=O)Nc1ccc(Oc2ccc(NC(=O)[C@H]3CC3(C)C)cn2)cc1` [Example 43], the “inhibiting effect on delayed-type hypersensitivity reaction” value is “exhibited its inhibiting effect”.

Values taken from US6794378B2, “Heterocyclic compounds and medical use thereof” (Ajinomoto Co., Inc., priority 1999, dated 2004).
